Measurements from the Deep4Chem optical property database.

Assay: solvent given as SMILES

Compound: c1ccc(-c2nc3c(c4c2-c2ccccc2CC4)-c2ccccc2CC3)cc1
- absorption maximum (in C1CCOC1): 314 nm
- absorption maximum (in CC#N): 308 nm
- absorption maximum (in CCCCCC): 309 nm
- absorption maximum (in CCOC(C)=O): 314 nm
- absorption maximum (in CO): 318 nm
- absorption maximum (in CS(C)=O): 316 nm
- absorption maximum (in Cc1ccccc1): 312 nm
- absorption maximum (in ClCCl): 318 nm

Compound: c1ccc2c(c1)-c1ccccc1C21c2ccccc2N(c2ccc(-c3nc([C@]45CC6CC(C[C@@H](C6)C4)C5)nc([C@]45C[C@H]6C[C@@H](C[C@H](C6)C4)C5)n3)cc2)c2ccccc21
- absorption maximum (in Cc1ccccc1): 380.1 nm

Compound: COc1ccc(C2=C(c3ccc(OC)cc3)c3cccc4c5c(cc(c34)O2)=NC2C=C(Br)C(Br)=CC2N=5)cc1 (configuration not stated)
- absorption maximum (in ClCCl): 526 nm

Compound: Cc1ccc(-c2nc(-c3cc([N+](=O)[O-])ccc3O)[nH]c2-c2ccc(C)cc2)cc1
- absorption maximum (in CO): 284 nm

Compound: CCCCn1c(-c2ccc(-c3nnc(-c4cccs4)o3)cc2)nc(-c2ccccc2)c1-c1ccccc1
- absorption maximum (in ClCCl): 340 nm

Compound: CCc1c(C)[nH]c(C2=[N+]3C(=Cc4c(C)c(CC)c(/C=C/c5ccc(N(C)C)cc5)n4[B-]3(F)F)c3ccccc32)c1C
- absorption maximum (in C1CCOC1): 720 nm
- absorption maximum (in CC#N): 713 nm
- absorption maximum (in CCCCCC): 719 nm
- absorption maximum (in CO): 712 nm
- absorption maximum (in Cc1ccccc1): 730 nm
- absorption maximum (in ClCCl): 725 nm

Compound: N#CCc1ccccc1-c1cc2ccccc2oc1=O
- absorption maximum (in ClC(Cl)Cl): 318 nm

Compound: O=Cc1ccc(-c2ccc(-c3nc4ccccc4s3)c(O)c2)o1
- absorption maximum (in ClCCl): 373 nm
- absorption maximum (in O): 326 nm

Compound: CCOC(=O)CN(CC(=O)OCC)c1ccc(-c2cc(-c3ccncc3)nc(-c3ccncc3)c2)cc1
- absorption maximum (in CC#N): 334 nm
- absorption maximum (in CCOC(C)=O): 334 nm
- absorption maximum (in CN(C)C=O): 342 nm
- absorption maximum (in CS(C)=O): 344 nm
- absorption maximum (in c1ccccc1): 332 nm

Compound: F[B-]12Oc3ccccc3-c3c4[n+]5c(c([n+]31)-c1ccccc1O2)-c1ccccc1O[B-]5(F)Oc1ccccc1-4
- absorption maximum (in ClCCl): 553 nm

Compound: CN(C)c1ccc(-c2nc3cccnc3[nH]2)cc1
- absorption maximum (in C1CCCCC1): 351 nm
- absorption maximum (in CC#N): 346 nm

Compound: C(=C\c1cnccn1)/c1ccc(N(c2ccccc2)c2ccccc2)cc1
- absorption maximum (in C1CCOC1): 393 nm
- absorption maximum (in CC#N): 391 nm
- absorption maximum (in CS(C)=O): 400 nm
- absorption maximum (in ClCCl): 394 nm

Compound: CCCCN1C(=O)c2cccc3c(OC)ccc(c23)C1=O
- absorption maximum (in CC#N): 376 nm
- absorption maximum (in CS(C)=O): 484 nm
- absorption maximum (in Cc1ccccc1): 362 nm

Compound: CC[n+]1c(-c2ccccc2)c2cc(N)ccc2c2ccc(NC(N)=[NH2+])cc21
- absorption maximum (in O): 444 nm

Compound: C(=C\c1cccc2ccccc12)/c1ccc(Oc2ccc3ccccc3c2-c2c(Oc3ccc(/C=C/c4cccc5ccccc45)cc3)ccc3ccccc23)cc1
- absorption maximum (in ClCCl): 334 nm

Compound: CC(C)(C)c1ccc2c(c1)c1cc(C(C)(C)C)cc3c1n2-c1cc(-c2ccc(F)cc2)cc2c1B3c1cc(C(C)(C)C)cc3c4cc(C(C)(C)C)ccc4n-2c13
- absorption maximum (in Cc1ccccc1): 469.92 nm

Compound: CC(C)(C)c1ccc(C(C)(C)C)c(N2C(=O)c3cccc4c(-c5ccc(-c6ccccc6)s5)ccc(c34)C2=O)c1
- absorption maximum (in CO): 403 nm
- absorption maximum (in CS(C)=O): 405 nm
- absorption maximum (in Cc1ccccc1): 398 nm

Compound: C(#Cc1ccc2ncsc2c1)c1ccc(N(c2ccc(C#Cc3ccc4ncsc4c3)cc2)c2ccc(C#Cc3ccc4ncsc4c3)cc2)cc1
- absorption maximum (in Cc1ccccc1): 380 nm

Compound: CC[N+]1(CC)CN2C(=N1)C(C(=O)[O-])=Cc1ccccc12
- absorption maximum (in CN(C)C=O): 378 nm
- absorption maximum (in O): 369 nm

Compound: Cn1cc(-c2nc3ccccc3nc2C#Cc2ccc(C#N)cc2)c2ccccc21
- absorption maximum (in ClCCl): 418 nm

Compound: CC1(C)C(/C=C/C=C/C=C/C=C2/N(CCC(=O)O)c3ccc4ccccc4c3C2(C)C)=[N+](CCC(=O)O)c2ccc3ccccc3c21
- absorption maximum (in CO): 792 nm

Compound: CC(C)(C)c1ccc2c(c1)sc1[n+]2[B-](F)(F)n2c(c3cccc4c(Br)ccc2c43)=N1
- absorption maximum (in C1CCOC1): 494 nm
- absorption maximum (in CC#N): 488 nm
- absorption maximum (in CCCCCC): 490 nm
- absorption maximum (in Cc1ccccc1): 498 nm
- absorption maximum (in ClCCl): 463 nm

Compound: COc1ccc(C2=[N+]3C(=Nc4c(-c5cc(OC)c(OC)c(OC)c5)c(Br)c(-c5ccc(OC)cc5)n4[B-]3(F)F)C(c3cc(OC)c(OC)c(OC)c3)=C2Br)cc1
- absorption maximum (in Cc1ccccc1): 689 nm

Compound: [NH3+]C(Cc1c[nH]c2ccccc12)C(=O)[O-] (configuration not stated)
- absorption maximum (in O): 277 nm

Compound: CC(C)[Si](C#Cc1c2ccccc2c(C#Cc2c3ccccc3c(C#Cc3c4ccccc4c(C#Cc4c5ccccc5c(C#Cc5c6ccccc6c(C#Cc6c7ccccc7c(C#C[Si](C(C)C)(C(C)C)C(C)C)c7ccccc67)c6ccccc56)c5ccccc45)c4ccccc34)c3ccccc23)c2ccccc12)(C(C)C)C(C)C
- absorption maximum (in Cc1ccccc1): 589 nm

Compound: COC(=O)c1ccc(C#Cc2c3c(c4c(-c5ccccc5)c(-c5ccccc5)c(-c5ccccc5)c(-c5ccccc5)c4c2-c2ccc(C(=O)OC)cc2)CC(C(=O)OC)(C(=O)OC)C3)cc1
- absorption maximum (in C1CCOC1): 347.38 nm

Compound: CC(C)(C)c1ccc2c(c1)c1cc(C(C)(C)C)ccc1n2-c1ccc(N(c2ccc(-c3ccc(N(c4ccc(-n5c6ccc(C(C)(C)C)cc6c6cc(C(C)(C)C)ccc65)cc4)c4ccc(-n5c6ccc(C(C)(C)C)cc6c6cc(C(C)(C)C)ccc65)cc4)cc3)cc2)c2ccc(-n3c4ccc(C(C)(C)C)cc4c4cc(C(C)(C)C)ccc43)cc2)cc1
- absorption maximum (in ClCCl): 349 nm

Compound: c1ccc(N(c2ccccc2)c2ccc(-c3ncc(-c4ccc(-c5ccc(-c6cnc(-c7ccc(N(c8ccccc8)c8ccccc8)cc7)s6)s5)s4)s3)cc2)cc1
- absorption maximum (in CO): 425 nm

Compound: CCCCCCn1c(=O)c2c3nc4ccccc4nc3c3c(=O)n(CCCCCC)c(=O)c3c2c1=O
- absorption maximum (in ClCCl): 404 nm

Compound: N#Cc1cc(N2c3ccccc3Oc3ccccc32)c(N2c3ccccc3Oc3ccccc32)cc1C#N
- absorption maximum (in c1ccc2c(c1)c1ccccc1n2-c1ccc(-c2ccc(-n3c4ccccc4c4ccccc43)cc2)cc1): 540 nm

Compound: CN1/C(=C/C=C(/C=C/c2sc3ccccc3[n+]2C)c2ccc(C(F)(F)F)cc2)Sc2ccccc21
- absorption maximum (in CCO): 646 nm
- absorption maximum (in CO): 643 nm
- absorption maximum (in CS(C)=O): 652 nm
- absorption maximum (in O): 639 nm

Compound: Cc1cc(C)c(C2=[N+]3C(=Cc4c(C)cc(C)n4[B-]3(F)F)c3ccccc32)[nH]1
- absorption maximum (in C1CCOC1): 609 nm
- absorption maximum (in CC#N): 601 nm
- absorption maximum (in CCCCCC): 610 nm
- absorption maximum (in CO): 603 nm
- absorption maximum (in Cc1ccccc1): 616 nm
- absorption maximum (in ClCCl): 609 nm

Compound: CC1(C)C(/C=C/C=C/C=C/C=C2\N(CCCCS(=O)(=O)[O-])c3ccc4ccccc4c3C2(C)C)=[N+](CCCCS(=O)(=O)[O-])c2ccc3ccccc3c21
- absorption maximum (in O): 780 nm

Compound: CCC1(CC)c2cc(/C=C/c3cc(Br)c(/C=C/c4ccc5c(c4)C(CC)(CC)c4cc(N6c7ccccc7Sc7ccccc76)ccc4-5)cc3Br)ccc2-c2ccc(N3c4ccccc4Sc4ccccc43)cc21
- absorption maximum (in C1CCOC1): 439.91 nm
- absorption maximum (in CC#N): 435.81 nm
- absorption maximum (in CCCCCC): 433.42 nm
- absorption maximum (in Cc1ccccc1): 439.91 nm
- absorption maximum (in ClCCl): 426 nm

Compound: O=[N+]([O-])c1cccc(O)c1
- absorption maximum (in CO): 329 nm
- absorption maximum (in O): 328 nm

Compound: N#Cc1cc(/C=C/c2ccc(N(c3ccccc3)c3ccccc3)cc2)ccc1-c1ccc(/C=C/c2ccc(N(c3ccccc3)c3ccccc3)cc2)cc1C#N
- absorption maximum (in ClCCl): 386 nm

Compound: Cn1cc(/C=C/C(=O)c2ccccc2)c2ccccc21
- absorption maximum (in CC#N): 381.03 nm
- absorption maximum (in CO): 391.71 nm

Compound: Cc1cc(C)c(C)c(B(c2c(C)c(C)cc(C)c2C)c2c(C)c(C)c(N3c4ccccc4Oc4ccccc43)c(C)c2C)c1C
- absorption maximum (in CC(C)(C)c1ccc(-n2c3ccc([Si](c4ccccc4)(c4ccccc4)c4ccccc4)cc3c3cc([Si](c4ccccc4)(c4ccccc4)c4ccccc4)ccc32)cc1): 373 nm

Compound: CCCCCCCCCCC1(CCCCCCCCCC)c2cc(-c3nc4ccccc4s3)ccc2-c2ccc(N3C(=O)c4ccc5c6ccc7c8c(ccc(c9ccc(c4c59)C3=O)c86)C(=O)N(c3ccc4c(c3)C(CCCCCCCCCC)(CCCCCCCCCC)c3cc(-c5nc6ccccc6s5)ccc3-4)C7=O)cc21
- absorption maximum (in ClCCl): 528 nm

Compound: [O-][n+]1c(/C=C/C=C/c2ccccc2)nc(N2CCOCC2)c2c1CCCC2
- absorption maximum (in ClCCl): 400 nm

Compound: F[B-]1(F)C2=C(C=c3c4cccc5cccc(c54)n31)c1cccc3ccc[n+]2c13
- absorption maximum (in CS(C)=O): 622 nm

Compound: Nc1ccc2c(-c3ccc(Br)cc3)c3ccc(=[NH2+])cc-3oc2c1
- absorption maximum (in CCO): 514 nm

Compound: COc1ccc(-c2csc(/C(C#N)=C\Nc3ccc(C#N)cc3)n2)cc1
- absorption maximum (in CC#N): 376 nm
- absorption maximum (in CCO): 378 nm
- absorption maximum (in CN(C)C=O): 380 nm
- absorption maximum (in Cc1ccccc1): 381 nm
- absorption maximum (in ClCCl): 379 nm

Compound: CC[N+](CC)=c1ccc2c(-c3ccccc3C(=O)O)c3cc4c(-c5ccccc5C(=O)O)c5ccc(=[N+](CC)CC)cc-5oc4cc3oc-2c1
- absorption maximum (in ClC(Cl)Cl): 598 nm

Compound: CCNc1cc2oc(=O)cc(C)c2cc1C
- absorption maximum (in CC#N): 354 nm

Compound: F[B-]1(F)n2c(cc3c2-c2ccccc2CC3)C(c2ccc(I)cc2)=C2C=C3CCc4ccccc4C3=[N+]21
- absorption maximum (in ClC(Cl)Cl): 634 nm

Compound: O=C1OC(c2ccccc2)=C/C1=C\c1ccc([N+](=O)[O-])cc1
- absorption maximum (in C1COCCO1): 416 nm

Compound: COc1ccc2c(c1)CCc1c-2nc(N)c(C#N)c1-c1ccc(Br)cc1
- absorption maximum (in C1CCOC1): 362 nm
- absorption maximum (in C1COCCO1): 366 nm
- absorption maximum (in CC#N): 364 nm
- absorption maximum (in CCCCCC): 360 nm
- absorption maximum (in CCO): 370 nm
- absorption maximum (in CN(C)C=O): 375 nm
- absorption maximum (in CO): 371 nm
- absorption maximum (in CS(C)=O): 379 nm
- absorption maximum (in ClC(Cl)Cl): 368 nm
- absorption maximum (in ClCCl): 365 nm

Compound: Fc1nc(F)c(F)c(C#Cc2nccnc2C#Cc2c(F)c(F)nc(F)c2F)c1F
- absorption maximum (in CC#N): 305 nm

Compound: COc1ccc2cc(-c3ccccc3CC#N)c(=O)oc2c1
- absorption maximum (in ClC(Cl)Cl): 336 nm

Compound: COc1ccc(C#Cc2ccc3nc4ccc(C#Cc5ccc(OC)cc5)cn4c(=O)c3c2)cc1
- absorption maximum (in ClCCl): 385 nm

Compound: CCN1/C(=C/C=C/C2=[N+](C)c3ccccc3C2(C)C)C(C)(C)c2ccccc21
- absorption maximum (in CS(C)=O): 552 nm

Compound: CC(C)(C)c1ccc2c(c1)Sc1cc(C(C)(C)C)ccc1N2c1ccc2c(ccc3nc4ccc5cc(N6c7ccc(C(C)(C)C)cc7Sc7cc(C(C)(C)C)ccc76)ccc5c4nc32)c1
- absorption maximum (in C1CCCCC1): 451 nm
- absorption maximum (in C1CCOC1): 452 nm
- absorption maximum (in Cc1ccccc1): 451 nm
